Source: paper PMC3210473 (Biotechnology and bioengineering, 2011)

Columns and labels:
sensor 6 (ERα 312-595) [1] = target: T1, sensor 6 (ERα 312-595) (Homo sapiens, UniProt P03372); assay: split mVenus complementation, flow cytometry; type: cell-based
T1 sequence (P03372 312-595): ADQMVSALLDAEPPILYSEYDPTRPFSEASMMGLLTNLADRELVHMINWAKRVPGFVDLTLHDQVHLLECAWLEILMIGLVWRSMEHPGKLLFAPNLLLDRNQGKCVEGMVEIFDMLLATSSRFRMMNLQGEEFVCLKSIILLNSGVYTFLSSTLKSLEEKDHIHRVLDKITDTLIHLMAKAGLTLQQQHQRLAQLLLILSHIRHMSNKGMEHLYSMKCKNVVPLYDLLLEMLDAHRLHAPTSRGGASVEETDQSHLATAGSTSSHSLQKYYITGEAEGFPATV

sensor 6 (ERα 312-595) [2] = target: T1, sensor 6 (ERα 312-595); assay: split mVenus complementation, flow cytometry; type: cell-based; conditions: transfected HeLa cells, up to […] ligand, […] h

Compound	EC50 (sensor 6 (ERα 312-595) [1])	split mVenus complementation, flow cytometry (sensor 6 (ERα 312-595) [2])
C[C@]12CC[C@@H]3c4cc(O)c(O)cc4CC[C@H]3[C@@H]1CC[C@@H]2O [2-Hydroxyestradiol]	550 ± 100 nM	
C[C@]12CC[C@@H]3c4ccc(O)c(O)c4CC[C@H]3[C@@H]1CC[C@@H]2O [4-Hydroxyestradiol]	58 ± 4.7 nM	
C/C=C(/C(=C/C)c1ccc(O)cc1)c1ccc(O)cc1 [Dienestrol]	4.4 ± 0.87 nM	
O=c1c(-c2ccc(O)cc2)coc2cc(O)ccc12 [daidzein]		both of which caused an increase in fluorescence at micromolar concentrations
Clc1ccc(C(c2ccccc2Cl)C(Cl)(Cl)Cl)cc1 (centres unmarked) [o,p’-DDT]		The pesticide o,p’-DDT, and a PCB compound also displayed activation beginning at micromolar levels
